The values below come from patent US9868739B2, “Salt(s) of 7-cyclopentyl-2-(5-piperazin-1-yl-pyridin-2-ylamino)-7H-pyrrolo[2,3-d]pyrimidine-6-carboxylic acid dimethylamide and processes of making thereof” (Novartis AG, priority 2010, dated 2018).

A value given as a limit tells only on which side of the number the result lay.

A short description of data set [1]: physchem. Conditions: water.
The nature of data set [2]: Dynamic Vapor Sorption (DVS), moisture cycles 0-90-0% RH. It counts as physicochemical.
A short description of data set [3]: Dynamic Vapor Sorption (DVS), moisture cycle 0-80-0% RH. Type of data set: physicochemical.

A word on the solubility: it is the concentration that dissolves in the medium under given conditions. In data set [1] (solubility in water), `CN(C)C(=O)c1cc2cnc(Nc3ccc(N4CCNCC4)cn3)nc2n1C1CCCC1.O=C(O)CCC(=O)O` [non-hydrate form, succinate salt of 7-Cyclopentyl-2-(5-piperazin-1-yl-pyridin-2-ylamino)-7H-pyrrolo[2,3-d]pyrimidine-6-caboxylic acid dimethylamide] returned a solubility of around 30 mg/mL.
On to `CN(C)C(=O)c1cc2cnc(Nc3ccc(N4CCNCC4)cn3)nc2n1C1CCCC1.O=C(O)CCC(=O)O` [hydrate form, succinate salt of 7-Cyclopentyl-2-(5-piperazin-1-yl-pyridin-2-ylamino)-7H-pyrrolo[2,3-d]pyrimidine-6-carboxylic acid dimethylamide], for which the solubility in data set [1] (solubility) was below 0.5 mg/mL.
In the case of `CN(C)C(=O)c1cc2cnc(Nc3ccc(N4CCNCC4)cn3)nc2n1C1CCCC1.O=C(O)CCC(=O)O` [Compound of Formula (II), 7-Cyclopentyl-N,N-dimethyl-2-(5-(piperazin-1-yl)pyridin-2-ylamino)-7H-pyrrolo[2,3-d]pyrimidine-6-carboxamide succinate], the moisture absorbed result in data set [2] (at 90% RH, in each cycle (0 to 90 to 0% RH, two cycles)) is on record as “up to 2%”; in data set [3] (at 80% RH (0 to 80 to 0% RH cycle)), “up to 0.5%”. Also, the “physical form after exposure” value in data set [2] (upon exposure to 90% RH (XRPD, DSC, TGA)) is on record as “change in physical form”; in data set [3] (upon exposure to 80% RH (XRPD)), “stability of the physical form”. Moreover, the “Change In Mass (%) Hysteresis” value in data set [3] (Cycle 1, target RH 50.0%) is given as 0.0074%; in data set [3] (Cycle 1, target RH 60.0%), 0.0140%. Besides, the “Change In Mass (%) Desorption” value in data set [3] (Cycle 1, target RH 80.0%) was determined as 0.5200%.
